In experiment [1] the target is Protein cereblon/Phospholipid hydroperoxide glutathione peroxidase GPX4 (Homo sapiens) (UniProt Q96SW2+P36969). As to the kind of experiment: PROTAC activity at CRBN/GPX4 in human MGC-803 cells assessed as induction of GPX4 degradation at 10 uM incubated for 24 hrs by Western blot analysis. It counts as cell-based.
The target in experiment [2] is von Hippel-Lindau disease tumor suppressor/Phospholipid hydroperoxide glutathione peroxidase GPX4 (Homo sapiens) (UniProt P40337+P36969). As to the kind of experiment: PROTAC activity at VHL/GPX4 in human MGC-803 cells assessed as induction of GPX4 degradation at 10 uM incubated for 24 hrs by Western blot analysis. The class given is cell-based. (In western blotting, separated proteins are transferred to a membrane and probed.)
von Hippel-Lindau disease tumor suppressor/Phospholipid hydroperoxide glutathione peroxidase GPX4 (Homo sapiens), sequence (P36969 whole entry, looked up): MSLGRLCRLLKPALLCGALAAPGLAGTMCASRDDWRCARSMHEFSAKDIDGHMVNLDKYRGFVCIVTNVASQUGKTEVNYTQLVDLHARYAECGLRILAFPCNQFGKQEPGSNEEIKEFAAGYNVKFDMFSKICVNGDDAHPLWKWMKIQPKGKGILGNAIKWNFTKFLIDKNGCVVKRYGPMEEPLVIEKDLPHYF
von Hippel-Lindau disease tumor suppressor/Phospholipid hydroperoxide glutathione peroxidase GPX4 (Homo sapiens), sequence (P40337 whole entry, looked up): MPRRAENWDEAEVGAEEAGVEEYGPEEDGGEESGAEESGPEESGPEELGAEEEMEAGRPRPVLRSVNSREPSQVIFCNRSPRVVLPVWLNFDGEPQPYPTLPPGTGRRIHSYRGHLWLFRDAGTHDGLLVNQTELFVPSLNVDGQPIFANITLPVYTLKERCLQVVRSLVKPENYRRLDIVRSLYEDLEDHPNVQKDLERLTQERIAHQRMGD

Experiment [3] deals with HT-1080. As to the kind of experiment: Cytotoxicity against human HT-1080 cells assessed as cell growth inhibition incubated for 48 hrs by CCK-8 assay. The class given is functional, cell-based. The conditions noted are these: HT-1080, 48 h. (In general: Tetrazolium assays rely on reduction of a dye to a coloured formazan, in cell work by metabolically active cells.)
Experiment [4] relates to HT-1080. As to the kind of experiment: Induction of ferroptosis in human HT-1080 cells assessed as […] accumulation at 10 uM incubated for 24 hrs by C11-BODIPY staining based flow cytometry analysis. The class given is functional, cell-based. In general terms: A flow cytometer gives signals particle by particle.
Experiment [5] has as its system HT-1080. The experiment in a line: Induction of ferroptosis in human HT-1080 cells assessed as […] accumulation at 10 uM incubated for 12 hrs by C11-BODIPY staining based flow cytometry analysis. It counts as functional, cell-based.

The structures appear in SMILES notation. Calls of active or inactive are those of the source. The rule behind the calls is not given here.

Protein cereblon/Phospholipid hydroperoxide glutathione peroxidase GPX4 (Homo sapiens), sequence (P36969 whole entry, looked up): as the sequence (P36969 whole entry, looked up) above
Protein cereblon/Phospholipid hydroperoxide glutathione peroxidase GPX4 (Homo sapiens), sequence (Q96SW2 whole entry, looked up): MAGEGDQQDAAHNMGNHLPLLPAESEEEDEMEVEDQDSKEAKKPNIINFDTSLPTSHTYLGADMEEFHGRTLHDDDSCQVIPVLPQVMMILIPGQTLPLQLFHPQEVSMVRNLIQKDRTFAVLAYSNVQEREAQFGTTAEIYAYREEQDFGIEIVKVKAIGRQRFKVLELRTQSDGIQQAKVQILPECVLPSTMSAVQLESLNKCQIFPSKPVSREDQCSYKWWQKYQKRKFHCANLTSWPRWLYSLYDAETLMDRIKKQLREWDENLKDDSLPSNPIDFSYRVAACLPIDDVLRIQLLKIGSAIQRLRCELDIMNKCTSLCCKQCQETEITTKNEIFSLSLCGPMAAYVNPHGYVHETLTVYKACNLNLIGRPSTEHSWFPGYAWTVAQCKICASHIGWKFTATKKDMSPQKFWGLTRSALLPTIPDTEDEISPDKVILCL

Consider `O=C(CCOCCNc1cccc2c1C(=O)N(C1CCC(=O)NC1=O)C2=O)NC(=O)Nc1ccc(N(C(=O)CCl)C(C(=O)NCCc2ccccc2)c2cccs2)cc1` (centres undefined), for which, in experiment [1], the Activity was less than 10%.

On to `Cc1ncsc1-c1ccc([C@H](C)NC(=O)[C@@H]2C[C@@H](O)CN2C(=O)[C@@H](NC(=O)CCCCC(=O)N2CCN(CC(=O)Nc3ccc(N(C(=O)CCl)C(C(=O)NCCc4ccccc4)c4cccs4)cc3)CC2)C(C)(C)C)cc1` (some centres undefined), for which the Activity in experiment [2] is less than 10%.

Consider `COc1ccc(N(C(=O)CCl)C(C(=O)NCCc2ccccc2)c2ccc(NC(=O)CCOCCOCCNc3cccc4c3C(=O)N(C3CCC(=O)NC3=O)C4=O)cc2)cc1Cl` (centres undefined), for which the Activity in experiment [2] is less than 10%.

For the molecule `COc1ccc(N(C(=O)CCl)C(C(=O)NCCc2ccccc2)c2ccc(NC(=O)CCOCCNC(=O)CCOCCNc3cccc4c3C(=O)N(C3CCC(=O)NC3=O)C4=O)cc2)cc1Cl` (centres undefined), in experiment [2], the Activity was 39.2%. Moreover, the IC50 (usually the concentration needed to halve the response being measured) with HT-1080 [3] is 13 µM.

As to `Cc1ncsc1-c1ccc([C@H](C)NC(=O)[C@@H]2C[C@@H](O)CN2C(=O)[C@@H](NC(=O)CCCCCCC(=O)Nc2ccc(N(C(=O)CCl)C(C(=O)NCCc3ccccc3)c3cccs3)cc2)C(C)(C)C)cc1` (some centres undefined), the Activity in experiment [2] was 45%. The result in the experiment on HT-1080 [4] was Active. Also, the result in the experiment on HT-1080 [5] was inactive.

Consider `O=C(Cn1cc(COc2cccc3c2C(=O)N(C2CCC(=O)NC2=O)C3=O)nn1)NCCCCC(=O)Nc1ccc(N(C(=O)CCl)C(C(=O)NCCc2ccccc2)c2cccs2)cc1` (centres undefined), for which the Activity in experiment [2] is less than 10%.

Regarding `O=C1CCC(N2C(=O)c3cccc(NCCOCCC(=O)N4CCN(CC(=O)Nc5ccc(N(C(=O)CCl)C(C(=O)NCCc6ccccc6)c6cccs6)cc5)CC4)c3C2=O)C(=O)N1` (centres undefined), the Activity in experiment [1] was determined as 33%. Also, the result in the experiment with HT-1080 [4] and with HT-1080 [5] was Active. Moreover, the IC50 in the experiment with HT-1080 [3] amounted to 11.7 µM.

As to `Cc1ncsc1-c1ccc([C@H](C)NC(=O)[C@@H]2C[C@@H](O)CN2C(=O)[C@@H](NC(=O)CCCCCCCCC(=O)Nc2ccc(N(C(=O)CCl)C(C(=O)NCCc3ccccc3)c3cccs3)cc2)C(C)(C)C)cc1` (some centres undefined), the Activity in experiment [2] was 28.6%.

Consider `O=C1CCC(N2C(=O)c3cccc(NCCOCCOCCOCCOCCC(=O)N4CCN(CC(=O)Nc5ccc(N(C(=O)CCl)C(C(=O)NCCc6ccccc6)c6cccs6)cc5)CC4)c3C2=O)C(=O)N1` (centres undefined), for which, in experiment [1], the Activity stood at 19.9%.

As for `O=C(CCOCCNc1cccc2c1C(=O)N(C1CCC(=O)NC1=O)C2=O)NCCCC(=O)Nc1ccc(N(C(=O)CCl)C(C(=O)NCCc2ccccc2)c2cccs2)cc1` (centres undefined), the Activity in experiment [1] turned out to be 33.8%. In addition, the IC50 with HT-1080 [3] is 37.7 µM.

As for `O=C1CCC(N2C(=O)c3cccc(NCCOCCOCCC(=O)N4CCN(CC(=O)Nc5ccc(N(C(=O)CCl)C(C(=O)NCCc6ccccc6)c6cccs6)cc5)CC4)c3C2=O)C(=O)N1` (centres undefined), the Activity in experiment [1] amounted to 18.2%.

Turning to `Cc1ncsc1-c1ccc([C@H](C)NC(=O)[C@@H]2C[C@@H](O)CN2C(=O)[C@@H](NC(=O)CCCCC(=O)Nc2ccc(N(C(=O)CCl)C(C(=O)NCCc3ccccc3)c3cccs3)cc2)C(C)(C)C)cc1` (some centres undefined), the Activity in experiment [2] was less than 10%.

Regarding `O=C(CCOCCNc1cccc2c1CN(C1CCC(=O)NC1=O)C2=O)NCCC(=O)Nc1ccc(N(C(=O)CCl)C(C(=O)NCCc2ccccc2)c2cccs2)cc1` (centres undefined), in experiment [1], the Activity is less than 10%.

`O=C(CCOCCOCCNc1cccc2c1C(=O)N(C1CCC(=O)NC1=O)C2=O)NCCOCCC(=O)Nc1ccc(N(C(=O)CCl)C(C(=O)NCCc2ccccc2)c2cccs2)cc1` (centres undefined): in experiment [1], the Activity was found to be 16.4%.

For `O=C1CCC(N2C(=O)c3cccc(OCC(=O)Nc4ccc(N(C(=O)CCl)C(C(=O)NCCc5ccccc5)c5cccs5)cc4)c3C2=O)C(=O)N1` (centres undefined), the Activity in experiment [1] was less than 10%. Also, the outcome in the experiment with HT-1080 [4] and in the experiment with HT-1080 [5] was Active. Besides, in the experiment on HT-1080 [3], the IC50 was found to be 11.9 µM.

For `O=C(CCOCCNc1cccc2c1C(=O)N(C1CCC(=O)NC1=O)C2=O)NCCCCCCC(=O)Nc1ccc(N(C(=O)CCl)C(C(=O)NCCc2ccccc2)c2cccs2)cc1` (centres undefined), the Activity in experiment [1] is less than 10%.

On to `Cc1ncsc1-c1ccc([C@H](C)NC(=O)[C@@H]2C[C@@H](O)CN2C(=O)[C@@H](NC(=O)CCCCCCCCCC(=O)Nc2ccc(N(C(=O)CCl)C(C(=O)NCCc3ccccc3)c3cccs3)cc2)C(C)(C)C)cc1` (some centres undefined), for which the Activity in experiment [2] is less than 10%.

For `O=C(CCOCCNc1cccc2c1C(=O)N(C1CCC(=O)NC1=O)C2=O)NCCCCCC(=O)Nc1ccc(N(C(=O)CCl)C(C(=O)NCCc2ccccc2)c2cccs2)cc1` (centres undefined), the Activity in experiment [1] was found to be 18%. In addition, in the experiment with HT-1080 [3], the IC50 was found to be 31.8 µM.

As for `O=C(CCOCCNc1cccc2c1CN(C1CCC(=O)NC1=O)C2=O)NCCCC(=O)Nc1ccc(N(C(=O)CCl)C(C(=O)NCCc2ccccc2)c2cccs2)cc1` (centres undefined), the Activity in experiment [1] was less than 10%.

As to `O=C1CCC(N2C(=O)c3cccc(OCC(=O)N4CCN(CC(=O)Nc5ccc(N(C(=O)CCl)C(C(=O)NCCc6ccccc6)c6cccs6)cc5)CC4)c3C2=O)C(=O)N1` (centres undefined), the Activity in experiment [1] was less than 10%.

For the molecule `O=C1CCC(N2C(=O)c3cccc(NCCOCCOCCOCCC(=O)Nc4ccc(N(C(=O)CCl)C(C(=O)NCCc5ccccc5)c5cccs5)cc4)c3C2=O)C(=O)N1` (centres undefined), the Activity in experiment [1] stood at 19.4%.

As to `O=C1CCC(N2C(=O)c3cccc(NCCOCCOCCOCCC(=O)N4CCN(CC(=O)Nc5ccc(N(C(=O)CCl)C(C(=O)NCCc6ccccc6)c6cccs6)cc5)CC4)c3C2=O)C(=O)N1` (centres undefined), in experiment [1], the Activity is less than 10%.

Turning to `O=C(CCOCCNc1cccc2c1C(=O)N(C1CCC(=O)NC1=O)C2=O)NCCOCCC(=O)Nc1ccc(N(C(=O)CCl)C(C(=O)NCCc2ccccc2)c2cccs2)cc1` (centres undefined), in experiment [1], the Activity came out at 30.1%. Besides, in the experiment on HT-1080 [3], the IC50 stood at 29.2 µM.

For `C=C(F)C(=O)N(c1ccc(NC(=O)CCOCCNC(=O)CCOCCNc2cccc3c2C(=O)N(C2CCC(=O)NC2=O)C3=O)cc1)C(C(=O)NCCc1ccccc1)c1cccs1` (centres undefined), the Activity in experiment [2] is less than 10%.

Regarding `Cc1ncsc1-c1ccc([C@H](C)NC(=O)[C@@H]2C[C@@H](O)CN2C(=O)[C@@H](NC(=O)CCCCCCCC(=O)Nc2ccc(N(C(=O)CCl)C(C(=O)NCCc3ccccc3)c3cccs3)cc2)C(C)(C)C)cc1` (some centres undefined), in experiment [2], the Activity amounted to 21%.

On to `Cc1ncsc1-c1ccc([C@@H](C)NC(=O)[C@@H]2C[C@@H](O)CN2C(=O)[C@@H](NC(=O)CCCCCC(=O)Nc2ccc(N(C(=O)CCl)C(C(=O)NCCc3ccccc3)c3cccs3)cc2)C(C)(C)C)cc1` (some centres undefined), for which the Activity in experiment [2] is less than 10%.

Turning to `COc1ccc(N(C(=O)CCl)C(C(=O)NCCc2ccccc2)c2ccc(NC(=O)CCOCCNc3cccc4c3C(=O)N(C3CCC(=O)NC3=O)C4=O)cc2)cc1Cl` (centres undefined), in experiment [2], the Activity amounted to 28.7%.

As for `COc1ccc(N(C(=O)CCl)C(C(=O)NCCc2ccccc2)c2ccc(NC(=O)CCOCCOCCOCCNc3cccc4c3C(=O)N(C3CCC(=O)NC3=O)C4=O)cc2)cc1Cl` (centres undefined), the Activity in experiment [2] is less than 10%.

As for `O=C(CCOCCNc1cccc2c1C(=O)N(C1CCC(=O)NC1=O)C2=O)NCCC(=O)Nc1ccc(N(C(=O)CCl)C(C(=O)NCCc2ccccc2)c2cccs2)cc1` (centres undefined), the Activity in experiment [1] is less than 10%.

Take `O=C(CCOCCNc1cccc2c1C(=O)N(C1CCC(=O)NC1=O)C2=O)NCCCCC(=O)Nc1ccc(N(C(=O)CCl)C(C(=O)NCCc2ccccc2)c2cccs2)cc1` (centres undefined): the Activity in experiment [1] was less than 10%.

For `O=C1CCC(N2C(=O)c3cccc(NCCOCCOCCOCCOCCC(=O)Nc4ccc(N(C(=O)CCl)C(C(=O)NCCc5ccccc5)c5cccs5)cc4)c3C2=O)C(=O)N1` (centres undefined), the Activity in experiment [1] amounted to 14.5%.

As for `O=C(CCOCCNc1cccc2c1C(=O)N(C1CCC(=O)NC1=O)C2=O)NCCOCCOCCC(=O)Nc1ccc(N(C(=O)CCl)C(C(=O)NCCc2ccccc2)c2cccs2)cc1` (centres undefined), the Activity in experiment [1] is less than 10%.

Source of the values: ChEMBL document CHEMBL5325446, “Design and synthesis of proteolysis-targeting chimeras (PROTACs) as degraders of glutathione peroxidase 4” (Bioorg Med Chem, 2023).
